Assay results taken from US10285986B2, “Compounds and anti-tumor NQO1 substrates” (The Board of Trustees of the University of Illinois, priority 2011, dated 2019).
Converted amounts (≈) assume the structure as drawn. Read-outs that look alike come from different tables or passages of the source.

Assays:
[1] = Solubility in organic solvents; type: physicochemical; details: organic solvent or mixture, thermodynamic from solid; THF; Table 1
[2] = Solubility in organic solvents; type: physicochemical; details: for solubility: organic solvent or mixture, thermodynamic from solid
Procedure: The solubility of DNQ derivatives in organic solvents was determined by measuring the amount of a given solvent required to dissolve a known amount of compound. Solvent was added to the compound in 50 μL aliquots and the slurry was sonicated. […] Solubility was assessed in DMSO, dichloromethane, and 33% methanol in dichloromethane (FIGS. 9, 10, and 11, respectively).

[3] = Aqueous solubility in pH 7.4 PBS by LC-MS; type: physicochemical; details: phosphate buffered saline, pH 7.4, aqueous buffer, thermodynamic from solid, PBS pH 7.4; Table 4.3
Procedure: The aqueous solubility of DNQ at pH 7.4 in phosphate buffered saline (PBS) was measured by LC-MS. DNQ was sonicated for 30 minutes in PBS then undissolved solid was removed by filtration through a 0.45 μm syringe filter and the filtrate was analyzed by LC-MS (λ=275 nm, ESI-TOF in negative mode). The optimal sonication time was determined by sonicating DNQ for 1, 5, 10, and 30 minutes. While the concentration of DNQ in solution increased substantially between 1, 5, and 10 minutes, there was only a minor difference between 10 and 30 minutes. During the 30 minute sonication the water bath warmed to 45° C. (samples were cooled to room temperature before filtration). A calibration curve was generated from 1-100 μM by dissolving DNQ in methanol to a concentration of 500 μM and making dilutions of this stock in 80:20 water:methanol. The calibration curve (measure by UV absorbance) was linear over this range; 1 μM was approximately the limit of detection. […] The solution was very pale yellow.
The aqueous solubility of the compounds was determined by an LC-MS assay as described in the specification above. We applied the calibration curve generated for DNQ to the derivatives under the assumption that the UV profile of the derivatives of DNQ would be similar to that of DNQ.
After sonication and filtration most of the aqueous solutions were colorless. The solutions of DNQ, 4-31, and 4-37 were faintly yellow while 4-8, 4-14 and 4-41 were substantially more colored. The solution of 4-8, 4-14 and 4-41 were diluted 10-fold with PBS prior to LC-MS analysis to ensure that the concentrations fell within the range of the calibration curve.

MCF-7 cells = assay: Cytotoxicity to MCF-7 cells with or without 25 μM dicoumarol (sulforhodamine B assay); type: cell-based, human; details: for Fold protection by DIC: Table 4.2
Procedure: The NQO1-dependent cytotoxicity of the first set of derivatives was determined in MCF-7 cells which express high levels of NQO1. Cells were exposed to DNQ for 2 hours in the presence or absence of 25 μM DIC. The media was then removed and cells were washed once with media then fresh media was added and the cells were incubated for 72 hours. Cell death was assessed using the sulforhodamine B assay previously described. […] Substitution off the nitrogen appeared well tolerated (4-14 and 4-15).
The DNQ derivatives synthesized were assayed for their toxicity to MCF-7 cells with or without DIC. The data from these experiments is organized in Table 4.2. […] This tolerance of sterically-demanding substituents corresponds with a flexible and promiscuous NQO1 active site. The poor activity of hydroxyl derivative 4-41 may be a result of either poor binding with the largely hydrophobic NQO1 active site or with an excessively strong substrate-enzyme interaction because of hydrogen bonding.

NQO1 = NQO1 (Homo sapiens, UniProt P15559); assay: NQO1 enzymatic measurements in vitro; type: biochemical; details: 1 μM substrate
Chain of NQO1 (P15559 whole entry): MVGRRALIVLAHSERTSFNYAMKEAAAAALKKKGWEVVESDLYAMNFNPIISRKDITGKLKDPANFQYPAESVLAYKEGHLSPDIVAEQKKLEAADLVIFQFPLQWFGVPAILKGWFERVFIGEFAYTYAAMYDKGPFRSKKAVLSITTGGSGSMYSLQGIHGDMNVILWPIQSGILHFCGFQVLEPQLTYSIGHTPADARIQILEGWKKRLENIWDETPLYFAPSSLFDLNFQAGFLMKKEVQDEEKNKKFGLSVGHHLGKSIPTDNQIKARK
Procedure: As further evidence that the activity of these DNQ derivatives is dependent on their ability to be reduced by NQO1, full enzymatic measurements in vitro were performed. We found a strong correlation between catalytic efficiency of substrates in vitro and their cell culture toxicity. […] This provides strong evidence that the cytotoxicity of DNQ and its derivatives are dependent primarily upon the activity of NQO1 within the cell.

[4] = 2:1 CH2Cl2:MeOH, Table 4.3, read-out: Solubility in 2:1 CH2Cl2:MeOH
[5] = CH2Cl2:MeOH 2:1, Table 1, read-out: CH2Cl2:MeOH 2:1 solubility
[6] = CH2Cl2, Table 1, read-out: CH2Cl2 solubility
[7] = DMSO, Table 1, read-out: DMSO solubility
[8] = Homo sapiens, MCF7, Table 1, read-out: MCF7 IC50
[9] = Homo sapiens, MCF7, Table 4.2, no DIC, ± s.e., read-out: IC50 vs. MCF-7 cells
[10] = Homo sapiens, MCF7, classification in figure legends of FIGS. 7-11, read-out: IC50 ("active" / generally "inactive" compounds)
[11] = Homo sapiens, MCF7, read-out: IC50 vs. MCF-7 cells +25 μM DIC, Table 4.2, +25 μM DIC, ± s.e.

Row | SMILES | solubility [1] | Solubility in CH2Cl2 ([2]; CH2Cl2, Table 4.3) | Solubility in DMSO ([2]; DMSO, Table 4.3) | solubility [2, 4] | solubility [2, 5] | solubility [2, 6] | solubility [2, 7] | solubility at 30 min [3] | IC50 (MCF-7 cells; [8]) | IC50 (MCF-7 cells; [9]) | IC50 (MCF-7 cells; [10]) | IC50 (MCF-7 cells; [11]) | Fold Protection of MCF7 cells w/ 25 μM dicoumarol (MCF-7 cells; Table 1) | Fold protection by DIC (MCF-7 cells) | NQO1 Initial Velocity @ 1 μM (NQO1) | solubility ([2]; CH2Cl2, Table 4.3, read-out: Solubility in CH2Cl2) | solubility ([2]; DMSO, Table 4.3, read-out: Solubility in DMSO) | IC50 (MCF-7 cells; Table 1, read-out: MCF7 IC50)
1 | CCCCn1c2c(c(CCC)cc1=O)C(=O)c1c(CCC)cc(=O)[nH]c1C2=O [Compound 4-28] | 17 mM (≈ 6500 µg/mL) | 35 mM (≈ 13400 µg/mL) | 7.1 mM (≈ 2720 µg/mL) | 64 mM (≈ 24500 µg/mL) | 64 mM (≈ 24500 µg/mL) | 35 mM (≈ 13400 µg/mL) | 7.1 mM (≈ 2720 µg/mL) | < 0.005 mM | 36 µM | 36 ± 11 µM | > 0.5 µM | 31 ± 10 µM | 0.9 | 0.9 | 75 ± 4 | – | – | –
2 | CCc1cc(=O)[nH]c2c1C(=O)c1c(CC)cc(=O)n(C)c1C2=O [Compound 4-29] | 6.2 mM (≈ 1940 µg/mL) | 10 mM (≈ 3120 µg/mL) | 21 mM (≈ 6560 µg/mL) | 46 mM (≈ 14400 µg/mL) | 46 mM (≈ 14400 µg/mL) | 10 mM (≈ 3120 µg/mL) | 21 mM (≈ 6560 µg/mL) | 0.084 mM (≈ 26.2 µg/mL) | 5 µM | 3.8 ± 1.2 µM | > 0.5 µM | 4.8 ± 1.1 µM | 1.2 | 1.3 | 250 ± 20 | – | – | –
3 | Cc1cc(=O)[nH]c2c1C(=O)c1c(C)cc(=O)n(C3CCCCCCC3)c1C2=O [Compound 4-39] | – | – | – | 46 mM (≈ 17500 µg/mL) | – | – | – | 0.024 mM (≈ 9.13 µg/mL) | – | 0.83 ± 0.07 µM | > 0.5 µM | 4.1 ± 0.8 µM | – | 3.8 | – | 120 mM (≈ 45700 µg/mL) | 71 mM (≈ 27000 µg/mL) | –
4 | Cc1cc(=O)[nH]c2c1C(=O)c1c(C)cc(=O)n(CCCO)c1C2=O [Compound 9-281] | 0.67 mM (≈ 220 µg/mL) | 0.3 mM (≈ 98.5 µg/mL) | 24 mM (≈ 7880 µg/mL) | 11 mM (≈ 3610 µg/mL) | 11 mM (≈ 3610 µg/mL) | 0.3 mM (≈ 98.5 µg/mL) | 24 mM (≈ 7880 µg/mL) | 0.485 mM (≈ 159 µg/mL) | 0.79 ± 0.1 µM | 0.68 ± 0.15 µM | > 0.5 µM | 3.4 ± 0.6 µM | 4 | 5.0 | 1600 ± 200 | – | – | –
5 | CO[C@@]12[C@H](COC(N)=O)C3=C(C(=O)C(C)=C(N)C3=O)N1C[C@@H]1N[C@@H]12 [MMC, mitomycin C, reference compound] | – | – | – | – | – | – | – | – | – | – | – | – | 1 | – | – | – | – | 14 µM
6 | CC1=C(N2CC2)C(=O)C(CO)=C(N2CC2)C1=O [RH1, reference compound] | – | – | – | – | – | – | – | – | – | – | – | – | 0.85 | – | – | – | – | 0.21 µM
7 | Cc1cc(=O)n(C)c2c1C(=O)c1c(C)cc(=O)n(C)c1C2=O [SCH, reference compound] | 3.7 mM (≈ 1100 µg/mL) | – | – | – | 60 mM (≈ 17900 µg/mL) | 25 mM (≈ 7460 µg/mL) | 15 mM (≈ 4470 µg/mL) | – | 3.9 µM | – | – | – | 3.5 | – | 32 ± 2 | – | – | –
